# In patent US11730819B2, “Peptide derivatives having novel linkage structures” (priority 2016, dated 2023):
# “And” between values parts separate entries of the source, which are not always exact repeats. Equal values may be shown once. Read-outs that look alike come from different tables or passages of the source.
# Columns and labels:
# MT1-MMP hemopexin domain = biological target: T1, MT1-MMP hemopexin domain (Homo sapiens, UniProt P50281); test: Fluorescence polarisation competition binding assay; details: human MT1-MMP
# T1 construct: residues Cys319-Gly511 from the human gene; His6 (N); made in house; host or cells: HEK293 cells (transient, pEXPR-IBA42 vector)
# Source text: The MT1-MMP hemopexin-like repeats (also known as the MT1-MMP hemopexin domain), residues Cys319-Gly511 from the human gene, were transiently expressed in HEK293 cells as secreted N-terminally His6-tagged soluble protein, using the pEXPR-IBA42 (IBA) expression vector. Following expression, the protein was purified by Nickel-NTA affinity chromatography followed by gel filtration, and purity was checked by SDS-PAGE. Batch to batch variability was also monitored by fluorescence thermal shift experiments in the presence/absence of a hemopexin domain binding bicycle.
# (§1) Binding affinity was measured using competition assays using Fluorescence Polarisation (anisotropy).
# Fluoresceination may be performed on the N-terminal amino group of the peptide, which is separated from the bicycle core sequence by a sarcosine spacer (usually Sar5). This can be done during Fmoc solid phase synthesis or post-synthetically (after cyclisation with TBMB and purification) if the N-terminal amino group is unique to the peptide. Fluoresceination can also be performed on the C-terminus, usually on a Lysine introduced as the first C-terminal residue, which is then separated from the bicycle core sequence by a sarcosine spacer (usually Sar6). Thus, N-terminal tracers can have a molecular format described as Fluo-Gly-Sar5-A(BicycleCoreSequence), and (BicycleCoreSequence)-A-Sar6-K(Fluo) for a C-terminally fluoresceinated construct. Fluorescent tracers used in the Examples are A-(17-69)-A-Sar6-K(Fluo), A-(17-69-07)-A-Sar6-K(Fluo), and A-(17-69-12)-A-Sar6-K(Fluo).
# (§2) Here, a pre-formed complex of PEX with the fluorescent PEX-binding tracer is titrated with free, non-fluoresceinated bicyclic peptide. Since all 17-69-based peptides are expected to bind at the same site, the titrant will displace the fluorescent tracer from PEX. Dissociation of the complex can be measured quantitatively, and the Kd of the competitor (titrant) to the target protein determined. The advantage of the competition method is that the affinities of non-fluoresceinated bicyclic peptides can be determined accurately and rapidly.
# (§3) Subsequently, the non-fluorescent competitor bicyclic peptide (usually just the bicycle core sequence) is titrated, such that it displaces the fluorescent tracer from the target protein. The displacement of the tracer is measured and associated with a drop in fluorescence polarisation. The drop in fluorescence polarisation is proportional to the fraction of target protein bound with the non-fluorescent titrant, and thus is a measure of the affinity of titrant to target protein.
# (§4) The raw data is fit to the analytical solution of the cubic equation that describes the equilibria between fluorescent tracer, titrant, and binding protein. The fit requires the value of the affinity of fluorescent tracer to the target protein, which can be determined separately by direct binding FP experiments (see previous section).
# MT1-MMP = MT1-MMP (Homo sapiens, UniProt P50281); test: SPR binding; details: read-out: Binding Affinity Kd (SPR)
# rat/mouse MT1-MMP = rat/mouse MT1-MMP (Mus musculus, UniProt P53690); test: Binding affinity to rat/mouse MT1-MMP, measured as previously described; details: Binding Affinity (Ki in nM) rat/mouse ki, bicycle peptide-drug conjugates, two values given
# Procedure: as §1, §2, §3
# as §4, with “section). The curve fitting was performed using Sigmaplot 12.0 and used an adapted version of the equation described by Zhi-Xin Wang (FEBS Letters 360 (1995) 111-114).” for “section).”
# The in vitro binding affinities of the bicycle peptide-drug conjugates prepared above were measured for MT1-MMP as previously described herein.
# HT1080 tumor cells = test: In vivo efficacy against HT1080 tumors in BALB/c nude mice; details: biw dosing, BALB/c nude mice with HT1080 tumors
# Procedure: HT1080 tumor cells were maintained in vitro as a monolayer culture in EMEM medium supplemented with 10% heat inactivated fetal bovine serum at 37 C in an atmosphere of 5% CO2 and air. The tumor cells were routinely subcultured twice weekly by trypsin-EDTA treatment. The cells growing in an exponential growth phase were harvested and counted for tumor inoculation.
# BALB/c nude mice were inoculated subcutaneously at the right flank with HT1080 tumor cells […] in 0.2 ml of PBS for tumor development. 39 animals were randomized when the average tumor volume reached […].
# The BDC compounds were formulated at 0.03 mg/ml in a vehicle buffer containing 25 mM histidine and 10% Sucrose. The formulations were administered twice weekly (biw) at 0.3, 1, 3 and 10 mg/kg. Tumor volume and body weight were measured up to 14 days from the first dosing.
Compound,"Ki (MT1-MMP hemopexin domain; bicycle peptides, read-out: Binding Affinity Ki (h))",Kd (MT1-MMP),Ki (rat/mouse MT1-MMP),"Ki (MT1-MMP hemopexin domain; Binding Affinity (Ki in nM) Human ki, bicycle peptide-drug conjugates, two values given)",tolerated dose (HT1080 tumor cells)
"C#CCCC(=O)NCCC(=O)N(C)CC(=O)N(C)CC(=O)N(C)CC(=O)N(C)CC(=O)N(C)CC(=O)N(C)CC(=O)N(C)CC(=O)N(C)CC(=O)N(C)CC(=O)N(C)CC(=O)N[C@@H](C)C(=O)N[C@H]1CN(C)Cc2cc3cc(c2)CN(C)C[C@@H](C(N)=O)NC(=O)[C@H](C(C)(C)C)NC(=O)[C@H](CC(=O)O)NC(=O)[C@H](Cc2ccc(O)cc2)NC(=O)[C@H](Cc2ccccc2)NC(=O)[C@H](CC(=O)O)NC(=O)[C@H](CCC(=O)O)NC(=O)[C@H](CSC3)NC(=O)[C@@H](C)NC(=O)[C@H](Cc2cccc3ccccc23)NC(=O)[C@H](CCC(=O)O)NC(=O)[C@H](CC(N)=O)NC(=O)[C@@H](C)NC1=O [17-69-07-N450, (PYA)-(B-Ala)-Sar10-A(Dap(Me))(D-Ala)NE(1Nal)(D-Ala)CEDFYD(tBuGly)(Dap(Me))]",3.7 nM,1.91 nM,,,
CC[C@H](C)[C@@H]([C@@H](CC(=O)N1CCC[C@H]1[C@H](OC)[C@@H](C)C(=O)N[C@H](C)[C@@H](O)c1ccccc1)OC)N(C)C(=O)[C@@H](NC(=O)[C@H](C(C)C)N(C)C(=O)OCc1ccc(NC(=O)[C@H](CCCNC(N)=O)NC(=O)[C@@H](NC(=O)Cn2cc(CCC(=O)N[C@@H](C)C(=O)N[C@H]3CNCc4cc5cc(c4)CSC[C@H](NC(=O)[C@@H](C)NC(=O)[C@H](Cc4cccc6ccccc46)NC(=O)[C@H](CCC(=O)O)NC(=O)[C@H](CC(N)=O)NC(=O)[C@@H](C)NC3=O)C(=O)N[C@@H](CCC(=O)O)C(=O)N[C@@H](CC(=O)O)C(=O)N[C@@H](Cc3ccccc3)C(=O)N[C@@H](Cc3ccc(O)cc3)C(=O)N[C@@H](CC(=O)O)C(=O)N[C@@H](C(C)(C)C)C(=O)N[C@H](C(N)=O)CNC5)nn2)C(C)C)cc1)C(C)C [BT17BDC-59],,,1.8 nM and 1.7 nM,2.8 nM and 2.7 nM,up to 3 mg/kg
